Tests used:
PC3 cells = assay: Cell cycle analysis (propidium iodide), SC21, PC3; assay type: cell-based, human; details: 72 hours
Protocol: FIG. 17 depicts flow cytometric analysis of the cell cycle profiles of DU145, PC3, MDA-MB-435, and HEY cells treated with SC21. […] SC21 induced a G0/G1 phase arrest in DU145 and MDA-MB-435 cells and S phase arrest in PC3 and HEY cells.
Cell cycle perturbations induced by SC21 and camptothecin (CPT) were analyzed by propidium iodide DNA staining. Briefly, exponentially growing PC3 and DU145 cells were treated with different doses of the drug for 24, 48, and 72 hours. At the end of each treatment time, cells were collected and washed with PBS after a gentle centrifugation at 200×g for 5 minutes. Cells were thoroughly resuspended in 0.5 mL of PBS and fixed in 70% ethanol for at least 2 hours at 4° C. Ethanol-suspended cells were then centrifuged at 200×g for 5 minutes and washed twice in PBS to remove residual ethanol. For cell cycle analysis, the pellets were suspended in 1 mL of PBS containing 0.02 mg/mL of propidiumiodide, 0.5 mg/mL of DNase-free RNase A and 0.1% of Triton X-100 and incubated at 37° C. for 30 minutes. Cell cycle profiles were obtained using a FACScan flowcytometer (Becton Dickinson, San Jose, Calif.) and data were analyzed by ModFit LT software (Verity Software House, Inc., Topsham, Me.).
It was noteworthy that SC21 induced S phase arrest in PC3 and HEY cell lines (FIG. 17).

T24 cells = assay: Two-dimensional gel electrophoresis proteomic analysis, SC23; assay type: cell-based, human; details: 2D gel spots, SC23 treatment
Protocol: Cells were treated for 12, 24, 48 and 72 hr with SC23 (IC80 dose). The soluble fraction was then extracted and quantified. […] of protein was loaded in the first dimension gel at 800 V for 16 h. Gels were then equilibrated, separated on a 12% SDS-PAGE gel for the second dimension, stained with CyproRuby, and imaged by Typhoon 9100.
SC23-Treated Cells Upregulate a Variety of Proteins in the Molecular Weight Range of 8-58 kDa. […] 2DE was then used to separate these proteins (FIG. 29). As above, treatment with SC23 led to a significant up-regulation of many proteins. Similar analysis was carried out for DU145 cells treated with SC23.
Proteins identified from the spots shown in FIG. 30 are 3-tubulin, myc promoter-binding protein (MPB-1), retinoblastoma-binding protein 7, vimentin, enolase, phosphopyruvate hydratase beta, mitochondrial ATP synthase beta chain.
Among the several spots that were at least 4-fold overexpressed was β-tubulin, which is related to the top three genes identified from our microarray analysis as described above.

[1] = system: EKVX non-small cell lung cancer cells; assay: Sensitivity of various cancer cells to SC144, EKVX; assay type: cell-based; details: Homo sapiens
Text: (§1) The studies were expanded to other cell lines. […] Subnanomolar to low nanomolar potency was also observed in HCT-116 and HT29 colon cancer cell lines (Table 2).

[2] = system: SKOV3 ovarian cancer cells; assay: Sensitivity of various cancer cells to SC144, SKOV3; assay type: cell-based; details: Homo sapiens, SK-OV-3
Text: as §1

SF-295 CNS cancer cells = assay: Sensitivity of various cancer cells to SC144, SF-295; assay type: cell-based; details: Homo sapiens
Text: as §1

UACC-62 melanoma cells = assay: Sensitivity of various cancer cells to SC144, UACC-62; assay type: cell-based; details: Homo sapiens
Text: as §1

Question: How did the “accumulation in S phase” value (PC3 cells) turn out when O=C(NNC(=O)c1ccccc1O)C1=CC2C=CC=CC2C=C1O (stereo not drawn) [SC21] was run?
Answer: The value was 52%.

Question: With O=C(NNC(O)c1cc2ccccc2cc1O)c1cc2ccccc2cc1O (stereo not drawn) [SC23] as the molecule, how does the β-tubulin protein overexpression (T24 cells) read?
Answer: Its β-tubulin protein overexpression is “at least 4 fold”.

Question: What does the source list for O=C(NNc1nc2cc(F)ccc2n2cccc12)c1cnccn1 [SC144, Pyrazine-2-carboxylic acid N′-(7-fluoro-pyrrolo[1,2-a]quinoxalin-4-yl)-hydrazide]?
Answer: CC50 [1]: 10 nM; CC50 [2]: 120 nM; CC50 (SF-295 CNS cancer cells): 420 nM; CC50 (UACC-62 melanoma cells): 800 nM

— US20110034472A1, “Novel Compounds for Treatment of Cancer and Disorders Associated With Angiogenesis Function” (UNIVERSITY OF SOUTHERN CALIFORNIA, priority 2004, published 2011)
